Data from ChEMBL document CHEMBL4706474, “Tetrahydro-2-naphthyl and 2-Indanyl Triazolopyrimidines Targeting Plasmodium falciparum Dihydroorotate Dehydrogenase Display Potent and Selective Antimalarial Activity” (J Med Chem, 2016).
In brackets after ≈: the same amount, converted by molar mass.

Columns and labels:
Cytochrome P450 2C19 = Cytochrome P450 2C19 (Homo sapiens, UniProt P33261); assay: Inhibition of CYP2C19 in human liver microsomes using isoform-specific probe substrates in presence of NADPH-generating system by LC-MS analysis; assay type: ADME
Cytochrome P450 2C19, sequence (P33261 whole entry, canonical isoform): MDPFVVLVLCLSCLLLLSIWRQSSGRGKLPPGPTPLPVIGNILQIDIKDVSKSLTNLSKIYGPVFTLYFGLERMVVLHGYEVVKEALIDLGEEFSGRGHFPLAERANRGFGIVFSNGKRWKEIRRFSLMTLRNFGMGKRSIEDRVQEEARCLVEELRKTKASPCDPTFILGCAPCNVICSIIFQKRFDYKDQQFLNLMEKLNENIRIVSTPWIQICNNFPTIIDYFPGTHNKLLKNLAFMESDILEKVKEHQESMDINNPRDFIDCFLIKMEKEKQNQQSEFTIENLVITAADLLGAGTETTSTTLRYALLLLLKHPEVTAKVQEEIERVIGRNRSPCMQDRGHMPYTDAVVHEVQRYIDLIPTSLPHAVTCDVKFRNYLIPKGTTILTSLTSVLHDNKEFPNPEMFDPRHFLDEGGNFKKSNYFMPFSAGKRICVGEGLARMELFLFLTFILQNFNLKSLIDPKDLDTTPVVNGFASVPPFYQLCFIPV

[1] = Inhibition of N-terminal His6-tagged Plasmodium falciparum DHODH expressed in Escherichia coli BL21 using L-DHO as substrate and CoQ as co-substrate by DCIP dye based spectrophotometric assay
[2] = Inhibition of N-terminal His6-tagged Plasmodium vivax DHODH expressed in Escherichia coli BL21 using L-DHO as substrate and CoQ as co-substrate by DCIP dye based spectrophotometric assay
Plasmodium falciparum [3] = assay: Antiplasmodial activity against Plasmodium falciparum 3D7 infected in RBC assessed as reduction in parasitemia incubated for 72 hrs by SYBR green dye-based assay; assay type: functional, organism-based; settings: rbc
[4] = Inhibition of N-terminal His6-tagged dog DHODH expressed in Escherichia coli BL21 using L-DHO as substrate and CoQ as co-substrate by DCIP dye based spectrophotometric assay; parameters: species or system Canis lupus familiaris
[5] = Lipophilicity, logD of the compound at pH 7.4; assay type: physicochemical; settings: buffer
[6] = Kinetic solubility of compound in phosphate buffer at pH 6.5 measured after 30 mins by HPLC-UV based analysis; assay type: physicochemical; settings: phosphate buffer, pH 6.5, read-out: Kinetic_solubility
[7] = Protein binding in human plasma assessed as bound fraction by LC-MS analysis based ultracentrifugation assay; assay type: ADME, cell-free; settings: read-out: PPB (converted)
[8] = Protein binding in rat plasma assessed as bound fraction by LC-MS analysis based ultracentrifugation assay; assay type: ADME, cell-free; settings: read-out: PPB (converted)
[9] = Intrinsic clearance in human pooled liver microsomes assessed per mg protein at 1 uM by LC-MS analysis; assay type: ADME, Microsome; settings: microsomes, 1 µM
[10] = Intrinsic clearance in rat liver microsomes assessed per mg protein at 1 uM by LC-MS analysis; assay type: ADME, Microsome; settings: microsomes, 1 µM
[11] = Intrinsic clearance in mouse liver microsomes at 1 uM by LC-MS analysis; assay type: ADME, Microsome
[12] = Solubility of compound in FeSSIF at pH 5 measured after 5 to 6 hrs by HPLC-UV based analysis; assay type: physicochemical; settings: simulated gi fluid, time 5-6 hrs
[13] = Tmax in Swiss mouse at 20 mg/kg, po administered as single dose via gavage measured over 24 hrs by LC-MS analysis; assay type: ADME, organism-based; settings: in vivo
[14] = Apparent half-life in Swiss mouse at 20 mg/kg, po administered as single dose via gavage measured over 24 hrs by LC-MS analysis; assay type: ADME, organism-based; settings: in vivo
[15] = Cmax in Swiss mouse at 20 mg/kg, po administered as single dose via gavage measured over 24 hrs by LC-MS analysis; assay type: ADME, organism-based; parameters: route oral, dose 20 mg/kg, time >24; settings: in vivo
[16] = AUC (0 to infinity) in Swiss mouse at 20 mg/kg, po administered as single dose via gavage measured over 24 hrs by LC-MS analysis; assay type: ADME, organism-based; parameters: route oral, dose 20 mg/kg, time >24; settings: in vivo
[17] = Unbound Cmax in Swiss mouse at 20 mg/kg, po administered as single dose via gavage measured over 24 hrs by LC-MS analysis; assay type: ADME, organism-based; settings: in vivo
[18] = Unbound AUC (0 to infinity) in Swiss mouse at 20 mg/kg, po administered as single dose via gavage measured over 24 hrs by LC-MS analysis; assay type: ADME, organism-based; settings: in vivo
[19] = Elimination half-life in Swiss mouse at 20 mg/kg, po administered as single dose via gavage measured over 24 hrs by LC-MS analysis; assay type: ADME, organism-based; settings: in vivo, read-out: beta t1/2 (converted)
[20] = Apparent half-life in Sprague-Dawley rat at 1.9 mg/kg, iv administered as infusion for 10 mins by LC-MS analysis; assay type: ADME, organism-based; settings: in vivo, read-out: t1/2(app) (converted)
[21] = AUC (0 to infinity) in Sprague-Dawley rat at 1.9 mg/kg, iv administered as infusion for 10 mins by LC-MS analysis; assay type: ADME, organism-based; parameters: route intravenous, dose 1.9 mg/kg, time 10 min; settings: in vivo
[22] = Unbound clearance in Sprague-Dawley rat at 1.9 mg/kg, iv administered as infusion for 10 mins by LC-MS analysis; assay type: ADME, organism-based; settings: in vivo
[23] = Volume of distribution at steady state in Sprague-Dawley rat at 1.9 mg/kg, iv administered as infusion for 10 mins by LC-MS analysis; assay type: ADME, organism-based; settings: in vivo
[24] = Unbound volume of distribution at steady state in Sprague-Dawley rat at 1.9 mg/kg, iv administered as infusion for 10 mins by LC-MS analysis; assay type: ADME, organism-based; settings: in vivo
[25] = Cmax in Sprague-Dawley rat at 18.2 mg/kg, po measured over 24 hrs by LC-MS analysis; assay type: ADME, organism-based; parameters: route oral, dose 18.2 mg/kg, time >24; settings: in vivo
[26] = Unbound Cmax in Sprague-Dawley rat at 18.2 mg/kg, po measured over 24 hrs by LC-MS analysis; assay type: ADME, organism-based; settings: in vivo
[27] = AUC (0 to infinity) in Sprague-Dawley rat at 18.2 mg/kg, po measured over 24 hrs by LC-MS analysis; assay type: ADME, organism-based; parameters: route oral, dose 18.2 mg/kg, time >24; settings: in vivo
[28] = Unbound AUC (0 to infinity) in Sprague-Dawley rat at 18.2 mg/kg, po measured over 24 hrs by LC-MS analysis; assay type: ADME, organism-based; settings: in vivo
[29] = Oral bioavailability in Sprague-Dawley rat at 18.2 mg/kg measured over 24 hrs by LC-MS analysis; assay type: ADME, organism-based; settings: in vivo
Plasmodium falciparum [30] = assay: Antiplasmodial activity against Plasmodium falciparum 3D7 infected in po dosed NSG mouse assessed as reduction in parasitemia administered once daily for 4 consecutive days starting from day 3 post-infection and measured 24 hrs post last dose by flow cytometric analysis; assay type: functional; settings: 3D7, po, 96 h, time 4 day
[31] = Unbound AUC (0 to infinity) in Sprague-Dawley rat at 1.9 mg/kg, iv by LC-MS analysis; assay type: ADME, organism-based; settings: in vivo
[32] = Protein binding in Swiss mouse plasma at 20 mg/kg, po administered as single dose via gavage measured over 24 hrs by LC-MS analysis; assay type: ADME, organism-based; settings: read-out: PPB (converted)
[33] = Protein binding in Sprague-Dawley rat plasma at 1.9 mg/kg, iv administered as infusion for 10 mins by LC-MS analysis; assay type: ADME, organism-based; settings: read-out: PPB (converted)
in vivo = settings: Sprague-Dawley, rat, po, 18.2 mg/kg
[34] = Solubility of compound in FaSSIF at pH 6.5 measured after 5 to 6 hrs by HPLC-UV based analysis

In the case of `Cc1cc(NC2CCc3cc(Cl)ccc3C2)n2nc(C(C)(F)F)nc2n1` (stereo in doubt), the IC50 (Cytochrome P450 2C19) is reported as > 20 µM, the IC50 [1] is reported as 0.0037 µM and the IC50 [2] is reported as 0.029 µM. For the same molecule, the EC50 (Plasmodium falciparum [3]) was 0.0038 µM, the IC50 [4] was > 100 µM and the logD [5] was 3.9. The solubility kinetic at 0.5 h [6] was 0.0031 mg/mL (≈ 8.2 µM), the fraction unbound [7] was 0.012 and the fraction unbound [8] was 0.008. The microsomal intrinsic clearance [9] was < 7 µL/min, the “Intrinsic clearance in rat liver microsomes (uL/min/mg protein)” value [10] was 33 µL/min and the intrinsic clearance [11] was 44 µL/min. The solubility [12] was 0.211 mg/mL (≈ 558 µM), the Tmax [13] was 1 h and the “t1/2(app)” value [14] was 1.9 h. It also gave a Cmax [15] of 7 µM, an AUC [16] of 19.7 µM·h and a fCmax [17] of 0.06 µM. It also gave a fAUC [18] of 0.16 µM·h, a half-life [19] of 2 h and a half-life [20] of 7.1 h. For the same molecule, the AUC(0-inf) [21] was 24 µM·h, the CL free [22] was 26.3 L/h/kg and the Vdss [23] was 1.5 L/kg. For the same molecule, the fVdss [24] was 188 L/kg, the Cmax [25] was 23.8 µM and the fCmax [26] was 0.19 µM. The AUC(0-inf) [27] was 227 µM·h, the fAUC [28] was 1.82 µM·h and the bioavailability [29] was 100%. For the same molecule, the ED90 (Plasmodium falciparum [30]) was > 30 mg/kg, the fAUC [31] was 0.19 µM·h and the fraction unbound at 24 h [32] was 0.008. For the same molecule, the fraction unbound at 10 min [33] was 0.008, the Tmax at 24 h (in vivo) was 4 h and the solubility [34] was 0.047 mg/mL (≈ 124 µM).
